The record followed here is ChEMBL document CHEMBL1147629, “Beyond U0126. Dianion chemistry leading to the rapid synthesis of a series of potent MEK inhibitors” (Bioorg Med Chem Lett, 2004).

The subject of test [1] is COS-7. Nature of the test: Inhibitory concentration against AP-1 transcription in COS-7 cells. To be noted: Chlorocebus aethiops.
Test [2] has as its target T1, Dual specificity mitogen-activated protein kinase kinase 1 (Homo sapiens, UniProt Q02750). Nature of the test: Inhibitory potency against mitogen activated protein kinase kinase 1.
Target sequence in this assay (Q02750 whole entry): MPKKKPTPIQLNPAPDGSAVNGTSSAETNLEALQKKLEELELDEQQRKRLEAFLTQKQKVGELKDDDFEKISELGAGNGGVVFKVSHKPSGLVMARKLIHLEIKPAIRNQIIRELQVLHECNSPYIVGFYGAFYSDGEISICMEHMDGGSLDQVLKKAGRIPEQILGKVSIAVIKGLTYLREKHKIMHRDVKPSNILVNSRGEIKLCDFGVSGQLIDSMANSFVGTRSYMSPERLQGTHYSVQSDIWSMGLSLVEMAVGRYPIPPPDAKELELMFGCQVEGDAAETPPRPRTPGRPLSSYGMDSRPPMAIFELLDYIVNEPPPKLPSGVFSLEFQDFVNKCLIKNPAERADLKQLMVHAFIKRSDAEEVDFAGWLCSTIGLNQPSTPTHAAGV
The subject of test [3] is COS-7.
The next test deals with Mus musculus. Briefly: In vivo effective dose against TPA-induced ear edema in mouse upon intraperitoneal administration. It is filed as functional. Conditions: ip; call rule not given here.
Test [4] in a line: Inhibitory potency against Mitogen activated protein kinase kinase 4. Type of test: functional.
Test [5] has as its target T2, Dual specificity mitogen-activated protein kinase kinase 3 (Homo sapiens, UniProt P46734).
T2 sequence (P46734 whole entry): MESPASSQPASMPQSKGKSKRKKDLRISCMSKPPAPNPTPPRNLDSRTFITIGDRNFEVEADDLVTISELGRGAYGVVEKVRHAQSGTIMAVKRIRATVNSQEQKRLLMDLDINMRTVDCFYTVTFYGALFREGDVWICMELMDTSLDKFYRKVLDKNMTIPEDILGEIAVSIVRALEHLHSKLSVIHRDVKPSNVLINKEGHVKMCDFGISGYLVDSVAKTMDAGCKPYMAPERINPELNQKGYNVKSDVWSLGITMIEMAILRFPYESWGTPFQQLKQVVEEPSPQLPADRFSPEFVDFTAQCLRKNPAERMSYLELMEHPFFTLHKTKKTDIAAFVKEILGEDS
Briefly: Inhibitory potency against MAP kinase kinase 3 (MKK3). It is filed as functional.

Test [6] has as its target T1, Dual specificity mitogen-activated protein kinase kinase 1. Nature of the test: Inhibitory potency against mitogen activated protein kinase kinase 1 at 10 uM.
Target sequence in this assay (Q02750 whole entry, looked up): as the sequence (Q02750 whole entry) above

pIC50: −log10 of the molar value. Bounds are passed on as bounds.

In the case of `N#C/C(=C(/N)Sc1ccccc1N)c1cccc(C(O)c2cccc([N+](=O)[O-])c2)c1` (stereo not drawn), the negative-log IC50 (pIC50) with COS-7 [1] was 5.80; in test [2] it was 7.77.
In the case of `N#C/C(=C(/N)Sc1ccc(N)cc1)c1cccc(C(O)c2ccc(C#N)cc2)c1` (stereo not drawn), the negative-log IC50 (pIC50) in test [2] was 7.28.
With `N#C/C(=C(/N)Sc1ccccc1N)c1cccc(C(O)c2ccc(C(F)(F)F)cc2)c1` (stereo not drawn), the negative-log IC50 (pIC50) is 5.40 in the test with COS-7 [1] and 7.24 in test [2].
For `N#C/C(=C(/N)Sc1ccccc1N)c1cccc(C(O)c2cccc(C(F)(F)F)c2)c1` (stereo not drawn) the same measures were 5.24 and 7.28.
In the test on COS-7 [1], `Cc1ccc(C(O)c2cccc(/C(C#N)=C(\N)Sc3ccccc3N)c2)cc1` (stereo not drawn) had a pIC50 of 5.52.
On to `COC(=O)c1ccc(C(O)c2cccc(/C(C#N)=C(\N)Sc3ccccc3N)c2)cc1` (stereo not drawn), for which the negative logarithm of the IC50 (pIC50) in the test on COS-7 [1] is 6.54; in test [2], 7.85.
For `N#C/C(=C(/N)Sc1ccccc1N)c1cccc(C(O)c2ccc([N+](=O)[O-])cc2)c1` (stereo not drawn) the same measures were 6.52 and 8.10.
Regarding `Cc1cccc(C(O)c2cccc(/C(C#N)=C(\N)Sc3ccc(N)cc3)c2)c1` (stereo not drawn), in the test with COS-7 [3], the IC50 entry was “Not Active”.
With `Cc1cccc(C(O)c2cccc(/C(C#N)=C(\N)Sc3ccccc3N)c2)c1` (stereo not drawn), the negative logarithm of the IC50 (pIC50) in the test on COS-7 [1] is 5.62.
Same read-out and setting: with `N#C/C(=C(/N)Sc1ccccc1N)c1cccc(C(O)Cc2ccccc2)c1` (stereo not drawn) the figure was 4.70.
`N#C/C(=C(/N)Sc1ccccc1N)c1cccc(C(O)c2ccc3ccccc3c2)c1` (stereo not drawn): the negative-log IC50 (pIC50) is 5.49 in the test on COS-7 [1] and 7.12 in test [2].
Turning to `N#C/C(=C(/N)Sc1ccccc1N)c1cccc(C(O)c2ccncc2)c1` (stereo not drawn), it took a dose of 5 mg/kg to reach the 50% effect level in the test on Mus musculus (ED50). In addition, the results for the negative logarithm of the IC50 (pIC50) (in test [4]; in test [5]; in the test with COS-7 [1]) were below 6.00, below 6.00 and 5.85, respectively.
As to `C[n+]1ccc(C(O)c2cccc(/C(C#N)=C(\N)Sc3ccccc3N)c2)cc1` (stereo not drawn), the negative logarithm of the IC50 (pIC50) in the test on COS-7 [1] is 4.30; in test [2] it was 6.48.
As to `N#C/C(=C(/N)Sc1ccccc1N)c1cccc(C(O)c2ccoc2)c1` (stereo not drawn), in the test on COS-7 [1], the pIC50 was 5.15.
The molecule `N#CC(=C(/N)Sc1ccccc1N)/C(C#N)=C(\N)Sc1ccccc1N` gave a negative-log IC50 (pIC50) in the test on COS-7 [1] of 6.00.
Consider `COc1ccccc1S/C(N)=C(\C#N)c1cccc(C(O)c2ccc(C#N)cc2)c1` (stereo not drawn), for which, in the test on COS-7 [3], the IC50 entry is on record as “Not Active”.
`N#C/C(=C(/N)Sc1ccc(N)cc1)c1cccc(Cc2ccccc2)c1`: the negative logarithm of the IC50 (pIC50) in the test with COS-7 [1] was 4.41.
As to `CC(C)(O)c1cccc(/C(C#N)=C(\N)Sc2ccccc2N)c1`, the pIC50 with COS-7 [1] was 4.40; in test [2], 6.47.
Take `N#C/C(=C(/N)Sc1ccccc1N)c1cccc(C(O)c2cccc(C#N)c2)c1` (stereo not drawn): the negative-log IC50 (pIC50) in the test on COS-7 [1] is 5.97; in test [2] it was 7.89.
Turning to `N#C/C(=C(/N)Sc1ccccc1N)c1cccc(Cc2ccccc2)c1`, the pIC50 with COS-7 [1] is 5.49.
In the test on COS-7 [1], `N#C/C(=C(/N)Sc1ccccc1N)c1cccc(Oc2ccccc2)c1` showed a pIC50 of 5.52.
As for `Cc1ccccc1C(O)c1cccc(/C(C#N)=C(\N)Sc2ccccc2N)c1` (stereo not drawn), in the test with COS-7 [1], the pIC50 was 5.57.
On to `N#C/C(=C(/N)Sc1ccccc1N)c1cccc(C(O)c2cccc3ccccc23)c1` (stereo not drawn), for which the pIC50 was 5.59 with COS-7 [1] and 7.33 in test [2].
As to `N#C/C(=C(/N)Sc1ccccc1N)c1cccc(C(O)c2ccccn2)c1` (stereo not drawn), in the test with COS-7 [1], the pIC50 is 4.93.
On to `N#C/C(=C(/N)Sc1ccccc1N)c1cccc(C(O)c2ccc3c(c2)OCCO3)c1` (stereo not drawn), for which the results for the pIC50 (in the test on COS-7 [1]; in test [2]) were 5.68 and 7.60, respectively.
Turning to `N#C/C(=C(/N)Sc1ccccc1N)c1cccc(C(O)c2ccc(C#N)cc2)c1` (stereo not drawn), the negative-log IC50 (pIC50) in the test on COS-7 [1] was 6.49; in test [2], 8.15.
In turn, `N#C/C(=C(/N)Sc1ccccc1N)c1cccc(C(=O)c2ccccc2)c1` had a negative logarithm of the IC50 (pIC50) in the test with COS-7 [1] of 5.21.
Consider `N#C/C(=C(/N)Sc1ccccc1N)c1cccc(C(O)c2ccsc2)c1` (stereo not drawn), for which the negative logarithm of the IC50 (pIC50) in the test on COS-7 [1] was 5.62; in test [2], 7.77.
In the case of `N#C/C(=C(/N)Sc1ccc(N)cc1)c1cccc(C(O)c2ccccc2)c1` (stereo not drawn), the negative logarithm of the IC50 (pIC50) in the test on COS-7 [1] was 4.97.
`N#C/C(=C(/N)Sc1ccccc1N)c1cccc(C(O)c2ccco2)c1` (stereo not drawn) had a pIC50 with COS-7 [1] of 4.91.
In test [2], `N#C/C(=C(/N)Sc1ccccc1N)c1cccc(C(O)c2c(F)c(F)c(F)c(F)c2F)c1` (stereo not drawn) showed a negative logarithm of the IC50 (pIC50) of 7.36.
For `Cc1ccc(C(O)c2cccc(/C(C#N)=C(\N)Sc3ccc(N)cc3)c2)cc1` (stereo not drawn), the IC50 entry in the test with COS-7 [3] was “Not Active”.
On to `Cc1ccccc1C(O)c1cccc(/C(C#N)=C(\N)Sc2ccc(N)cc2)c1` (stereo not drawn), for which, in the test on COS-7 [1], the pIC50 was 5.44.
Take `N#C/C(=C(/N)Sc1ccccc1N)c1cccc(C(O)c2cccs2)c1` (stereo not drawn): the negative-log IC50 (pIC50) with COS-7 [1] was 5.65; in test [2], 7.77.
In the case of `N#C/C(=C(/N)Sc1ccccc1N)c1cccc(C(O)C2CCCCC2)c1` (stereo not drawn), the negative logarithm of the IC50 (pIC50) in the test on COS-7 [1] is 5.35; in test [2], 7.25.
Molecule `N#C/C(=C(/N)Sc1ccccc1O)c1cccc(C(O)c2ccc(C#N)cc2)c1` (stereo not drawn) showed a negative logarithm of the IC50 (pIC50) with COS-7 [1] of 6.19.
Regarding `N#C/C(=C(/N)Sc1ccccc1N)c1cccc(C(O)c2ccc([N+](=O)[O-])cc2[N+](=O)[O-])c1` (stereo not drawn), the pIC50 with COS-7 [1] is 6.52; in test [2], 8.10.
Turning to `CN(C(=O)c1cccc(/C(C#N)=C(\N)Sc2ccccc2N)c1)c1ccccc1`, in test [2], the negative logarithm of the IC50 (pIC50) was 5.40.
`N#C/C(=C(/N)Sc1ccccc1N)c1cccc(C(O)c2cccnc2)c1` (stereo not drawn) had a pIC50 in the test with COS-7 [1] of 5.57.
Turning to `CC(O)c1cccc(/C(C#N)=C(\N)Sc2ccccc2N)c1` (stereo not drawn), the pIC50 in the test on COS-7 [1] was 4.18; in test [2], 6.74.
With `CC(O)(c1ccccc1)c1cccc(/C(C#N)=C(\N)Sc2ccccc2N)c1` (stereo not drawn), in the test with COS-7 [3], the IC50 result was “Not Active”.
Consider `N#C/C(=C(/N)Sc1ccccc1N)c1ccc(C(=O)c2ccccc2)cc1`, for which, in the test with COS-7 [1], the negative-log IC50 (pIC50) is 5.50.
`N#C/C(=C(/N)Sc1ccccc1N)c1cccc(C(O)c2ccccc2)c1` (stereo not drawn) showed a pIC50 with COS-7 [1] of 5.68.
The molecule `N#CC(=C(N)Sc1ccccc1N)c1ccccc1` had a pIC50 in test [2] of 6.85.
Regarding `N#C/C(=C(/N)Sc1ccccc1)c1cccc(C(O)c2ccc(C#N)cc2)c1` (stereo not drawn), the figures for the negative-log IC50 (pIC50) (with COS-7 [1]; in test [2]) were 5.92 and 7.28, respectively.
In test [6], `CN(C(=O)c1cccc(/C(C#N)=C(\N)Sc2ccc(N)cc2)c1)c1ccccc1` had an inhibition of 45%.
Consider `N#C/C(=C(/N)Sc1ccccc1N)c1cccc(C(O)(c2ccccc2)c2ccccc2)c1`, for which, in the test on COS-7 [3], the IC50 entry is “Not Active”. The molecule also had a pIC50 in test [2] of 5.65.
For `N#C/C(=C(/N)Sc1ccccc1N)c1cccc(C(O)c2ccc(-c3nnn(C(c4ccccc4)(c4ccccc4)c4ccccc4)n3)cc2)c1` (stereo not drawn), the negative-log IC50 (pIC50) with COS-7 [1] is 5.16; in test [2] it was 6.59.
As for `N#C/C(=C(/N)Sc1ccccc1O)c1cccc(C(O)c2cccc([N+](=O)[O-])c2)c1` (stereo not drawn), the figures for the pIC50 (with COS-7 [1]; in test [2]) were 5.49 and 7.60, respectively.
